Entries after “also recorded” stand apart in the source; their conditions may differ. Where two headings read alike, the source gives them in different places. One block for each molecule: values may come before it.
Experiments:
[1] = cited from earlier work; for Φfl: no solvent given in the cell
[2] = cited from earlier work
[3] = UV-visible absorption and fluorescence spectra of the dyes of the invention; format: physicochemical; conditions: for ε · 10^−5 / λmax (abs.) / λmax (fl.): solvent MeOH
Protocol: UV-visible absorption spectra were recorded on a Varian Cary 4000 UV-Vis spectrophotometer, and fluorescence spectra on a Varian Cary Eclipse fluorescence spectrophotometer. Reactions were carried out upon magnetic stirring in Schlenk flasks equipped with septa or reflux condensers with bubble-counters under argon using a standard manifold with vacuum and argon lines. All NMR spectra are referenced to tetramethylsilane as an internal standard (δ=0 ppm) using the signals of the residual protons of CHCl3 (7.26 ppm) in CDCl3, CHD2OD (3.31 ppm) in CD3OD, HOD (4.75 ppm) in D2O, [D5]acetone (2.04 ppm) in [D6]acetone or [D5]DMSO (2.50 ppm) in [D6]DMSO. Multiplicities of signals are described as follows: s=singlet, br. s=broad singlet, d=doublet, t=triplet, q=quartet, quint=quintet, m=multiplet, mc=centrosymmetrical multiplet. Coupling constants (J) are given in Hz. Multiplicities in the ^13C NMR spectra were determined by APT (Attached Proton Test) measurements. Low resolution mass spectra (electro spray ionization, ESI) were obtained with LCQ and ESI-TOF mass-spectrometers (MICROTOF (focus), Fa. Bruker). The MICROTOF spectrometer equipped with ESI ion source Apollo and direct injector with LC autosampler Agilent RR 1200 was used for obtaining high resolution mass spectra (ESI-HRMS). ESI-HRMS were obtained also on APEX IV spectrometer (Bruker). HPLC system (Knauer): Smartline pump 1000 (2×), UV detector 2500, column thermostat 4000 (25° C.), mixing chamber, injection valve with 20 and 100 μL loop for the analytical and preparative columns, respectively; 6-port-3-channel switching valve; analytical column: Eurospher-100 C18, 5 μm, 250×4 mm, 1.1 mL/min; preparative column: Eurospher-100-5 C18, 5 μm, 250×8 mm, 3.7 mL/min; solvent A: water+0.1% v/v trifluoroacetic acid (TFA); solvent B: MeCN+0.1% v/v TFA; detection at 636 nm (if not stated otherwise). Normal phase analytical TLC was performed on MERCK ready-to-use plates with silica gel 60 (F254) and reversed phase TLC—on RP-18W/UV254 precoated TLC plates (Macherey-Nagel). Preparative TLC was performed on MERCK HPTLC silica gel 60 plates (10×10 cm, layer thickness 0.2 mm). Column chromatography: MERCK silica gel, grade 60, 0.04-0.063 mm or Polygoprep 60-50 C18 (Macherey-Nagel).

[4] = Solubility and polarity of the dyes
[5] = Fluorescence quantum yield, Atto 633 as reference; format: physicochemical; conditions: Atto 633 as reference (Φfl = 64% in aqueous buffer)
Description: Moreover, intersystem crossing rates (kISC) and rates of the T1→S0 transitions were also found to be the same for both deuterated and undeuterated substances (see ref. to Table 2).

[6] = Chemical and storage stability of dyes and reactive derivatives; format: physicochemical; conditions: for chemical stability of the active ester: isolation and storage; for stability in a solid state: under Ar
Description: Usually, amino- or thiol reactive derivatives of the fluorescent dyes are used for labelling of proteins. For conjugation with amines, the free carboxy group needs to be activated by the formation of N-hydroxy(sulfo)succinimidyl esters, phenyl esters with electron-acceptor groups in the benzene ring or similar compounds with good leaving groups. […] Ester 8 partly decomposed in the course of chromatographic isolation using silica gel. Therefore, the reaction mixture containing the active ester 8 was used for labelling the lipids in their non-polar domain and other coupling procedures. […] They were isolated by reversed-phase HPLC using the gradient elution with aqueous acetonitrile with 0.1% (v/v) of TFA, lyophilized and stored at −20° C. under argon. Under these conditions, the content of the corresponding acids 6/6D in the very light dark blue voluminous solids increased from 3-5% up to 7-10% in 2 months. The higher stability of the NHS esters 9 and 10 may be explained by the absence of any nucleophilic counter ion. The maleimide derivative 11 has been prepared straight from compounds 9 and 10 by combining them in DMF with Et3N as base. It was also isolated by HPLC.

[7] = as above; format: physicochemical

SMILES: O=C(O)CCCCCNC(=O)COc1ccc(/C=C/C2=[N+]3C(=Cc4ccc(-c5cccs5)n4[B-]3(F)F)C=C2)cc1 [BODIPY ® 630/650]
τfl ([1]; EtOH): 4.4 (EtOH)^1 ns | τfl ([1]; H2O): 3.9 (H2O) ns | Φfl [1]: “good” | ε · 10^−5 ([1]; solvent MeOH): 1.01 M^−1 cm^−1 | λmax (abs.) ([1]; solvent MeOH): 625 nm | λmax (fl.) ([1]; solvent MeOH): 640 nm | Solubility (solvents) [2]: DMSO, MeCN

Stokes shift ([3]; dyes of the invention): 23 nm | ε · 10^−5 [3]: 0.73 M^−1 cm^−1 | λmax (abs.) [3]: 638 nm | λmax (fl.) [3]: 661.5 nm | Solubility (solvents) [4]: DMF, THF, CHCl3; | polarity [4]: non-polar | solubility in water or aqueous buffers [4]: very slightly soluble in water | Φfl in water [5]: 53%
SMILES: CC1=CC(C)(C)N2CCCc3c4c(cc1c32)C(c1c(F)c(F)c(F)c(F)c1C(=O)N(C)CCC(=O)O)=c1cc2c3c(c1O4)CCC[N+]=3C(C)(C)C=C2C [Compound 5-H]
solubility in organic solvents [4]: moderately soluble in polar organic solvents; also recorded: very good

ε · 10^−5 [3]: 0.66 M^−1 cm^−1 | λmax (abs.) [3]: 638 nm | λmax (fl.) [3]: 661.5 nm | Solubility (solvents) [4]: DMF, THF, CHCl3; | polarity [4]: non-polar | solubility in water or aqueous buffers [4]: insoluble in water | Φfl in water [5]: 62%
SMILES: COC(=O)CCN(C)C(=O)c1c(F)c(F)c(F)c(F)c1C1=c2cc3c4c(c2Oc2c1cc1c5c2CCCN5C(C)(C)C=C1C)CCC[N+]=4C(C)(C)C=C3C [Compound 5-Me]
solubility in organic solvents [4]: soluble in most organic solvents (except alkanes)

ε · 10^−5 [3]: 0.92 M^−1 cm^−1 | λmax (abs.) [3]: 638 nm | λmax (fl.) [3]: 661 nm | Solubility (solvents) [4]: DMF, THF, CHCl3; | polarity [4]: non-polar | solubility in water or aqueous buffers [4]: insoluble in water | Φfl in water [5]: 61%
SMILES: CC1=CC(C)(C)N2CCCc3c4c(cc1c32)C(c1c(F)c(F)c(F)c(F)c1C(=O)N(C)CCC(=O)OC(C)(C)C)=c1cc2c3c(c1O4)CCC[N+]=3C(C)(C)C=C2C [Compound 5-tBu]
solubility in organic solvents [4]: soluble in most organic solvents (except alkanes)

λmax (abs.) [3]: 632 nm | λmax (fl.) [3]: 655.5 nm | Solubility (solvents) [4]: CHCl3, THF | polarity [4]: non-polar
SMILES: COC(=O)c1c(F)c(F)c(F)c(F)c1C1=c2cc3c4c(c2Oc2c1cc1c5c2CCCN5C(C)(C)C=C1C)CCC[N+]=4C(C)(C)C=C3 [Compound 7]

chemical stability of the active ester [6]: Low chemical stability
SMILES: CC1=CC(C)(C)N2CCCc3c4c(cc1c32)C(c1c(F)c(F)c(F)c(F)c1C(=O)N(C)CCC(=O)Oc1c(F)c(F)cc(F)c1F)=c1cc2c3c(c1O4)CCC[N+]=3C(C)(C)C=C2C [Compound 8]

solubility in water or aqueous buffers [4]: soluble in water | chemical stability of the active ester [6]: remarkably stable | stability in a solid state [6]: stable | stability in aqueous solutions ([7]; at RT): decomposes
SMILES: CN(CCC(=O)ON1C(=O)CCC1=O)C(=O)c1c(F)c(F)c(F)c(F)c1C1=c2cc3c4c(c2Oc2c1cc1c5c2CCCN5C(C)(C)C=C1CS(=O)(=O)O)CCC[N+]=4C(C)(C)C=C3CS(=O)(=O)[O-] [Compound 9]

solubility in water or aqueous buffers [4]: soluble in water | stability in a solid state [6]: stable
SMILES: CN(CCC(=O)NCCN1C(=O)C=CC1=O)C(=O)c1c(F)c(F)c(F)c(F)c1C1=c2cc3c4c(c2Oc2c1cc1c5c2CCCN5C(C)(C)C=C1CS(=O)(=O)O)CCC[N+]=4C(C)(C)C=C3CS(=O)(=O)O [Compound 11]
stability in methanol or methanol-containing solutions [7]: decomposes; also recorded: sensitive to methanol even at room temperature

SMILES: CCN(CC)c1ccc2c(C=CC=C3N(CCCCCC(=O)O)c4ccc(S(=O)(=O)[O-])cc4C3(C)C)cc(C(C)(C)C)[o+]c2c1 [DY-630]
τfl ([1]; H2O): 0.21 ns | Φfl [1]: Varies^6 | ε · 10^−5 ([1]; solvent EtOH): 2.0 M^−1 cm^−1 | λmax (abs.) ([1]; solvent EtOH): 636 nm | λmax (fl.) ([1]; solvent EtOH): 657 nm | λmax (abs.) ([1]; solvent H2O): 627^1 nm | λmax (fl.) ([1]; solvent H2O): 651^1 nm | Solubility (solvents) [2]: MeOH, EtOH,; also recorded: DMF, DMSO

SMILES: CC[N+](CC)=c1ccc2c(/C=C/C=C3/N(CCCS(=O)(=O)[O-])c4ccc(S(=O)(=O)[O-])cc4C3(C)CCCC(=O)O)cc(C(C)(C)C)oc-2c1.[Na+] (centres unmarked) [DY-631]
ε · 10^−5 ([1]; solvent EtOH): 2.0 M^−1 cm^−1 | Solubility (solvents) [2]: H2O, MeOH,; also recorded: DMF, DMSO

SMILES: CC[N+](CCCS(=O)(=O)[O-])=c1ccc2c(C=CC=C3N(CCCCCC(=O)O)c4ccc(S(=O)(=O)[O-])cc4C3(C)C)cc(C(C)(C)C)oc-2c1.[Na+] [DY-633]
ε · 10^−5 ([1]; solvent EtOH): 2.0 M^−1 cm^−1 | Solubility (solvents) [2]: H2O, MeOH,; also recorded: DMF, DMSO

SMILES: CC(C)(C)c1cc(C=CC=C2N(CCCC(=O)O)c3ccc(S(=O)(=O)[O-])cc3C2(C)CCCS(=O)(=O)[O-])c2ccc(=[N+](CCCS(=O)(=O)[O-])CCCS(=O)(=O)[O-])cc-2o1.[Na+].[Na+].[Na+] (centres unmarked) [DY-634]
ε · 10^−5 ([1]; solvent EtOH): 2.0 M^−1 cm^−1 | Solubility (solvents) [2]: H2O, MeOH,; also recorded: DMF, DMSO

SMILES: CC(C)(C)c1cc(C=CC=C2N(CCCCCC(=O)O)c3ccc(S(=O)(=O)[O-])cc3C2(C)C)c2cc3c4c(c2[o+]1)CCCN4CCC3 [DY-635]
τfl ([1]; H2O): 0.48 ns | ε · 10^−5 ([1]; solvent EtOH): 2.0 M^−1 cm^−1 | λmax (abs.) ([1]; solvent EtOH): 647 nm | λmax (fl.) ([1]; solvent EtOH): 671 nm | λmax (abs.) ([1]; solvent H2O): 635^1 nm | λmax (fl.) ([1]; solvent H2O): 669^1 nm | Solubility (solvents) [2]: MeOH, EtOH,; also recorded: DMF, DMSO

SMILES: CC(C)(C)C1=CC(=CC=CC2=[N+](CCCS(=O)(=O)[O-])c3ccc(S(=O)(=O)[O-])cc3C2(C)CCCC(=O)O)c2cc3c4c(c2O1)CCCN4CCC3.[Na+] (centres unmarked) [DY-636]
ε · 10^−5 ([1]; solvent EtOH): 2.0 M^−1 cm^−1 | λmax (abs.) ([1]; solvent EtOH): 645 nm | λmax (fl.) ([1]; solvent EtOH): 671 nm | Solubility (solvents) [2]: H2O, EtOH,; also recorded: DMF, DMSO

SMILES: CCN1c2cc3[o+]c(C(C)(C)C)cc(C=CC=C4N(CCCCCC(=O)O)c5ccc(S(=O)(=O)[O-])cc5C4(C)C)c3cc2C(C)=CC1(C)C [DY-650]
τfl ([1]; H2O): 0.64 (H2O)^1 ns | ε · 10^−5 ([1]; solvent EtOH): 2.2 M^−1 cm^−1 | λmax (abs.) ([1]; solvent EtOH): 653 nm | λmax (fl.) ([1]; solvent EtOH): 674 nm | λmax (abs.) ([1]; solvent H2O): 646^1 nm | λmax (fl.) ([1]; solvent H2O): 670 nm | Solubility (solvents) [2]: MeOH, EtOH,; also recorded: DMF, DMSO

SMILES: CCN(CCCS(=O)(=O)[O-])c1ccc2nc3ccc(=[N+](C)CCC(=O)O)cc-3oc2c1 [Evoblue 30]
τfl ([1]; H2O): 0.64 (H2O)^1 ns | ε · 10^−5 ([1]; solvent EtOH): 1.0 M^−1 cm^−1 | λmax (abs.) ([1]; solvent EtOH): 647 nm | λmax (fl.) ([1]; solvent EtOH): 664 nm | λmax (abs.) ([1]; solvent H2O): 650^1 nm | λmax (fl.) ([1]; solvent H2O): 667^1 nm | Solubility (solvents) [2]: H2O, MeOH,; also recorded: DMF, DMSO

Source: patent US8580579B2, “Hydrophilic and lipophilic rhodamines for labelling and imaging” (Max-Planck-Gesellschaft zur Foerderung der Wissenschaften …, priority 2009, dated 2013)
